In the supplement of paper PMC10920090:

Assays:
[1] = test system: MDA-MB-231; assay: drug sensitivity score (DSS), cytotoxicity CellTox Green; higher = more cytotoxic; extreme values may be limits of the assay; conditions: 72 h
[2] = test system: MDA-MB-231; assay: drug sensitivity score (DSS), cell viability CellTiter-Glo; higher = more sensitive; extreme values may be limits of the assay; conditions: 72 h
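For drug sensitivity score (DSS), cytotoxicity CellTox Green in this document: DSS summarises each dose–response curve by combining IC50, EC50, maximal inhibition and efficacy across drug concentrations.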

Structure (SMILES) | drug sensitivity score ([1]; shRNA: shPPFIA1_1) [DSS] | drug sensitivity score ([1]; shRNA: shScramble) [DSS] | drug sensitivity score ([2]; shRNA: shPPFIA1_1) [DSS] | drug sensitivity score ([2]; shRNA: shScramble) [DSS]
C=C1C[C@@H]2[C@H](CC[C@]3(C)C(=O)CC[C@@H]23)[C@@]2(C)C=CC(=O)C=C12 [Exemestane] | 0 | 0 | 0 | 1.4
Cc1nc(C(=O)NCC(=O)O)c(O)c2ccc(Oc3ccccc3)cc12 [FG-4592] | 0 | 0 | 2.2 | 2.9
CCn1c(=O)c(-c2ccc(Cl)cc2Cl)cc2cnc(Nc3ccc(N4CCNCC4)c(F)c3)nc21 [FRAX486] | 0 | 0 | 0 | 2.8
O=S(=O)(c1cccc2cnccc12)N1CCCNCC1 [Fasudil] | 1.6 | 2.1 | 2.6 | 1.4
Cc1cnc(Nc2ccc(OCCN3CCCC3)cc2)nc1Nc1cccc(S(=O)(=O)NC(C)(C)C)c1 [Fedratinib] | 2.2 | 5.7 | 1.9 | 9.2
CON(C)C(=O)N1N=C(c2cc(F)ccc2F)S[C@@]1(CCCN)c1ccccc1 [Filanesib] | 14.1 | 9.3 | 0 | 8.4
O=C(Nc1nc2cccc(-c3ccc(CN4CCS(=O)(=O)CC4)cc3)n2n1)C1CC1 [Filgotinib] | 0 | 0 | 0 | 0.2
CC(C)(C)NC(=O)[C@H]1CC[C@H]2[C@@H]3CC[C@H]4NC(=O)C=C[C@]4(C)[C@H]3CC[C@]12C [Finasteride] | 0 | 0 | 0 | 0
CCCCCCCCc1ccc(CCC(N)(CO)CO)cc1 [Fingolimod] | 6.7 | 6.8 | 7.5 | 8
O=c1[nH]c(=O)n([C@H]2C[C@H](O)[C@@H](CO)O2)cc1F [Floxuridine] | 0 | 0.2 | 14.6 | 19.7
Nc1nc(F)nc2c1ncn2[C@@H]1O[C@H](CO)[C@@H](O)[C@@H]1O [Fludarabine] | 0 | 0 | 0.4 | 2.5
O=c1[nH]cc(F)c(=O)[nH]1 [Fluorouracil] | 0 | 0 | 0 | 0.6
CC(C)C(=O)Nc1ccc([N+](=O)[O-])c(C(F)(F)F)c1 [Flutamide] | 0 | 0 | 0 | 0.3
COc1cc2c(Oc3ccc(NC(=O)C4(C(=O)Nc5ccc(F)cc5)CC4)cc3F)ccnc2cc1OCCCN1CCOCC1 [Foretinib] | 0 | 0 | 0 | 2.2
COc1cc(Nc2ncc(F)c(Nc3ccc4c(n3)N(COP(=O)(O)O)C(=O)C(C)(C)O4)n2)cc(OC)c1OC [Fostamatinib] | 1.6 | 0.8 | 1 | 5.3
C[C@]12CC[C@@H]3c4ccc(O)cc4C[C@@H](CCCCCCCCC[S+]([O-])CCCC(F)(F)C(F)(F)F)[C@H]3[C@@H]1CC[C@@H]2O (stereo not given in full) [Fulvestrant] | 0 | 0 | 0 | 0
Cn1nccc1Nc1nccc(-c2ccn([C@H](CO)c3ccc(Cl)c(F)c3)c(=O)c2)n1 [GDC-0994] | 0 | 3 | 0 | 3.5
CNc1nc(Nc2cn(C(C)(C)C#N)nc2C)ncc1C(F)(F)F [GNE-0877] | 0 | 0 | 0 | 0
CCNc1nc(Nc2cc(F)c(C(=O)N3CCOCC3)cc2OC)ncc1C(F)(F)F [GNE-7915] | 0 | 0 | 0 | 0
CCCc1cc(C)[nH]c(=O)c1CNC(=O)c1cc(-c2ccnc(N3CCN(C)CC3)c2)cc2c1cnn2C(C)C [GSK343] | 3.8 | 1.9 | 6 | 3.1
CCCOc1ccn2c(C(C)=O)cc(-c3ccccc3S(C)(=O)=O)c2c1 [GSK2801] | 0 | 0 | 0 | 0
CCOC(=O)CCNc1cc(N2CCc3ccccc3CC2)nc(-c2ccccn2)n1 [GSK-J4] | 7.4 | 8.3 | 10.2 | 11.3

Structure (SMILES) | drug sensitivity score ([1]; shRNA: shPPFIA1_1) [DSS] | drug sensitivity score ([1]; shRNA: shScramble) [DSS] | drug sensitivity score ([2]; shRNA: shPPFIA1_1) [DSS] | drug sensitivity score ([2]; shRNA: shScramble) [DSS]
C[C@@H]1C=C2C(=O)O[C@@H]3CC[C@H](C1)[C@]23O [Galiellalactone] | 2.9 | 1.8 | 0.2 | 2.1
Cc1cccc(-c2nn3c(c2-c2ccnc4ccc(C(N)=O)cc24)CCC3)n1 [Galunisertib] | 0 | 0 | 0 | 0
Cc1cc(Nc2cc(CN3CCOCC3)c3nc(C)c(Cc4ccc(Cl)cc4F)n3n2)n[nH]1 [Gandotinib] | 2.1 | 1.7 | 1.6 | 4.4
CC(C)c1cc(-c2n[nH]c(=O)n2-c2ccc3c(ccn3C)c2)c(O)cc1O [Ganetespib] | 1.2 | 3 | 9.9 | 11.5
CN(C)C1CCN(C(=O)c2ccc(NC(=O)Nc3ccc(-c4nc(N5CCOCC5)nc(N5CCOCC5)n4)cc3)cc2)CC1 [Gedatolisib] | 0 | 0 | 7.2 | 20.8
Nc1ccn([C@@H]2O[C@H](CO)[C@@H](O)C2(F)F)c(=O)n1 [Gemcitabine] | 0.3 | 0 | 1.3 | 8.6
CCN(CC)Cc1ccc2cc(COC(=O)Nc3ccc(C(=O)NO)cc3)ccc2c1 [Givinostat] | 2.4 | 3.4 | 0.9 | 4
CN1CC[C@@H](NC(=O)Nc2ccc(C#N)cc2)C[C@@H]1c1nc2ccccc2[nH]1 [Glasdegib] | 0 | 0 | 0 | 0
CN1CCN(C2CCN(C(=O)Nc3cc(Oc4ccc(NC(=O)C5(C(=O)Nc6ccc(F)cc6)CC5)c(F)c4)ccn3)CC2)CC1 [Golvatinib] | 0 | 0 | 0.2 | 2
CC(C)C[C@H](NC(=O)[C@@H](COC(C)(C)C)NC(=O)[C@H](Cc1ccc(O)cc1)NC(=O)[C@H](CO)NC(=O)[C@H](Cc1c[nH]c2ccccc12)NC(=O)[C@H](Cc1cnc[nH]1)NC(=O)[C@@H]1CCC(=O)N1)C(=O)N[C@@H](CCCNC(=N)N)C(=O)N1CCC[C@H]1C(=O)NNC(N)=O [Goserelin] | 0 | 0 | 0 | 0
O=S(=O)(c1cccc2c(O)nccc12)N1CCCNCC1 [Hydroxyfasudil] | 0 | 0 | 0 | 0
NC(=O)NO [Hydroxyurea] | 0 | 0 | 0 | 0
COc1cc2c(cc1-c1c(C)noc1C)ncc1[nH]c(=O)n([C@H](C)c3ccccn3)c12 [I-BET151] | 0 | 0 | 0 | 6.1
O=C(O)c1ccc(O)c2ncccc12 [IOX-1] | 0 | 0 | 0 | 0
O=C(O)CNC(=O)c1c(O)c2ccccc2n(Cc2ccccc2)c1=O [IOX-2] | 0 | 0 | 5 | 4
C=CC(=O)N1CCC[C@@H](n2nc(-c3ccc(Oc4ccccc4)cc3)c3c(N)ncnc32)C1 [Ibrutinib] | 0 | 0 | 0 | 0
C#Cc1cccc(Nc2ncnc3cc4c(cc23)OCCOCCOCCO4)c1 [Icotinib] | 0 | 0 | 6.2 | 3
CC(=O)[C@]1(O)Cc2c(O)c3c(c(O)c2[C@@H](O[C@H]2C[C@H](N)[C@H](O)[C@H](C)O2)C1)C(=O)c1ccccc1C3=O [Idarubicin] | 6.6 | 7.5 | 6.4 | 10.7
COc1cc(C(=O)O)ccc1NC(=O)[C@@H]1N[C@@H](CC(C)(C)C)[C@](C#N)(c2ccc(Cl)cc2F)[C@H]1c1cccc(Cl)c1F [Idasanutlin] | 2.6 | 0.6 | 0 | 0
CC[C@H](Nc1ncnc2[nH]cnc12)c1nc2cccc(F)c2c(=O)n1-c1ccccc1 [Idelalisib] | 0 | 0 | 0 | 0.9
O=P1(NCCCl)OCCCN1CCCl (stereo not given) [Ifosfamide] | 0 | 0 | 0 | 0
Cc1ccc(NC(=O)c2ccc(CN3CCN(C)CC3)cc2)cc1Nc1nccc(-c2cccnc2)n1 [Imatinib] | 1.4 | 0 | 1.5 | 0

Structure (SMILES) | drug sensitivity score ([1]; shRNA: shPPFIA1_1) [DSS] | drug sensitivity score ([1]; shRNA: shScramble) [DSS] | drug sensitivity score ([2]; shRNA: shPPFIA1_1) [DSS] | drug sensitivity score ([2]; shRNA: shScramble) [DSS]
CC(C)Cn1cnc2c(N)nc3ccccc3c21 [Imiquimod] | 0.9 | 0 | 0 | 2.7
O=C(Nc1ccncc1)C(=O)c1cn(Cc2ccc(Cl)cc2)c2ccccc12 [Indibulin] | 2.3 | 0 | 0 | 3.1
NC(=O)c1ccc(I)c([N+](=O)[O-])c1 [Iniparib] | 0 | 0 | 0 | 0
CC(C)NC[C@@H](C(=O)N1CCN(c2ncnc3c2[C@H](C)C[C@H]3O)CC1)c1ccc(Cl)cc1 [Ipatasertib] | 0 | 0 | 3.3 | 3.7
CCc1c2c(nc3ccc(OC(=O)N4CCC(N5CCCCC5)CC4)cc13)-c1cc3c(c(=O)n1C2)COC(=O)[C@]3(O)CC [Irinotecan] | 0 | 0 | 0 | 0.3
CCC(C)n1ncn(-c2ccc(N3CCN(c4ccc(OCC5COC(Cn6cncn6)(c6ccc(Cl)cc6Cl)O5)cc4)CC3)cc2)c1=O (stereo not given) [Itraconazole] | 0 | 0 | 4.8 | 5.6
C/C(=C\c1csc(C)n1)[C@@H]1C[C@@H]2O[C@]2(C)CCC[C@H](C)[C@H](O)[C@@H](C)C(=O)C(C)(C)[C@@H](O)CC(=O)N1 [Ixabepilone] | 3.8 | 3.1 | 0 | 5
CCCNC(=O)Nc1ccc(Oc2ncnc3cc(OC)c(OC)cc23)cc1Cl [KRN-633] | 0 | 0 | 0 | 0.9
O=C(c1ccc(/C=C/c2n[nH]c3ccccc23)cc1)N1CCNCC1 [KW-2449] | 0 | 0 | 0 | 0
O=C(Cc1ccc(-c2ccc(OCCN3CCOCC3)cc2)cn1)NCc1ccccc1 [KX2-391] | 5.5 | 1.8 | 2.1 | 8.2
CN[C@@H](C)C(=O)N[C@H](C(=O)N1CCC[C@H]1c1nc(C(=O)c2ccc(F)cc2)cs1)C1CCCCC1 [LCL161] | 40.9 | 24.4 | 20.5 | 2.5
CS(=O)(=O)CCNCc1ccc(-c2ccc3ncnc(Nc4ccc(OCc5cccc(F)c5)c(Cl)c4)c3c2)o1 [Lapatinib] | 0 | 0 | 0 | 0
Oc1ccc2c(c1)CC[C@H](c1ccccc1)[C@@H]2c1ccc(OCCN2CCCC2)cc1 [Lasofoxifene] | 0 | 0 | 0 | 0.4
Nc1cccc2c1CN(C1CCC(=O)NC1=O)C2=O (stereo not given) [Lenalidomide] | 0 | 0 | 0 | 0
COc1cc2nccc(Oc3ccc(NC(=O)NC4CC4)c(Cl)c3)c2cc1C(N)=O [Lenvatinib] | 0 | 0 | 0 | 0
C[C@]12O[C@H](C[C@]1(O)CO)n1c3ccccc3c3c4c(c5c6ccccc6n2c5c31)CNC4=O [Lestaurtinib] | 0 | 0 | 1.1 | 4.9
N#Cc1ccc(C(c2ccc(C#N)cc2)n2cncn2)cc1 [Letrozole] | 0 | 0 | 0 | 0
c1ccc([C@H]2CN3CCSC3=N2)cc1 [Levamisole] | 0 | 0 | 0 | 0
Cc1ccc(F)c(NC(=O)Nc2ccc(-c3cccc4[nH]nc(N)c34)cc2)c1 [Linifanib] | 0 | 0 | 0 | 0
C[C@]1(O)C[C@@H](c2nc(-c3ccc4ccc(-c5ccccc5)nc4c3)c3c(N)nccn32)C1 [Linsitinib] | 0 | 0 | 0 | 0
Nc1nc(OCc2cc(Br)cs2)c2[nH]cnc2n1 [Lomeguatrib] | 0 | 0 | 0.1 | 0
